Measurements published in patent US20250127863A1, “ANTIMICROBIAL PEPTIDE FOR ONYCHOMYCOSIS” (CBMR SCIENTIFIC NANOSCIENCE B.V., priority 2019, published 2025).
Like-named read-outs stand apart in the source and are kept apart here. No end group written: not given here.

Experiments:
Candida parapsilosis = format: cell-based
Method: (§1) The minimum inhibitory concentration (MIC) value is defined as the lowest sample concentration that inhibited growth. In the Examples, the MIC90 value is presented, which MIC90 values are determined according to established methods known to the person with the skills in the relevant art. Experiments; 1×10E5 CFU of various strains/ml were incubated for 24-48 h at 37° C. in 4× diluted medium of RPMI 1640 with the indicated concentrations of antimicrobial peptide hLF(1-11) [SEQ ID NO: 3]. As controls various strains cells were incubated for 24-48 h at 37° C. with no agent (antimicrobial peptide), and subsequently, growth of the microbial organism (e.g. yeast, bacterium) was monitored by using spectrophotometry with a spectrophotometer at 620 nm. […] ND=Not done. Representative single assay data are listed rather than a range, for clarity reasons and for ease of comparison of peptide efficacy. The MIC was calculated as the lowest antibiotic (antimicrobial peptide) concentration at which growth of the assessed yeast or bacterium (microbe) was inhibited (inhibitory concentration IC90).
For 3 patients A, B, C who were treated with the low concentration of antimicrobial peptide, and for which now clinical improvement was established, it was established that one patient presented with a positive culture (Candida parapsilosis). […] See also Tables 1-3 in Example 4, here below. […]

Trichoderma viride = assay: IC50 growth inhibition; format: cell-based
onychomycosis [1] = format: in vivo, human; details: for no results observed, number of patients: 3-5 months treatment of the fungal nail
Method: The anti-fungal activity of the antimicrobial peptide hLF1-11 (GRRRRSVQWCA) [SEQ ID NO: 3] was tested in a clinical trial with human subjects who suffered from at least one nail apparently with onychomycosis.
In the clinical trial a total of 53 patients with different (severe) clinical signs of onychomycosis were included.

C. auris = assay: MIC90 growth inhibition; format: cell-based, Candida auris; details: RPMI 1640 one-fourth strength
Method: as §1

S. epidermidis Type 2163 = assay: MIC90 growth inhibition; format: cell-based, Staphylococcus epidermidis; details: RPMI 1640 one-fourth strength
Method: as §1

C. glabrata spp. = assay: MIC90 growth inhibition; format: cell-based, Candida glabrata; details: RPMI 1640 one-fourth strength
Method: as §1

Microsporum spp = assay: MIC90 growth inhibition, organisms related to onychomycosis; format: cell-based; details: RPMI 1640 one-fourth strength
Method: as §1

Hypercrealis spp = assay: as above; format: cell-based; details: RPMI 1640 one-fourth strength
Method: as §1

Malassezia spp = assay: as above; format: cell-based; details: RPMI 1640 one-fourth strength
Method: as §1

Epidermophyton spp = assay: as above; format: cell-based; details: RPMI 1640 one-fourth strength
Method: as §1

Trichophyton spp = assay: as above; format: cell-based; details: Trichophyton spp (Table 2); RPMI 1640 one-fourth strength
Method: as §1

[2] = tested on: Trichophyton interdigitalis; assay: as above; format: cell-based; details: RPMI 1640 one-fourth strength
Method: as §1

[3] = tested on: Scopulariopsis breyicaulis; assay: as above; format: cell-based; details: RPMI 1640 one-fourth strength
Method: as §1

Candida albicans spp = assay: as above; format: cell-based; details: RPMI 1640 one-fourth strength
Method: as §1

[4] = tested on: Crypt. neoform. ▴ SKN7 (UMC); assay: MIC90 growth inhibition; format: cell-based, Cryptococcus neoformans; details: genetically modified type species, RPMI 1640 one-fourth strength
Method: as §1

Rhizoctonia solani = assay: IC50 growth inhibition; format: cell-based
C. parapsilosis CBS #7 = assay: MIC90 growth inhibition; format: cell-based, Candida parapsilosis; details: RPMI 1640 one-fourth strength
Method: as §1

C. parapsilosis CBS #61 = assay: MIC90 growth inhibition; format: cell-based, Candida parapsilosis; details: RPMI 1640 one-fourth strength
Method: as §1

C. parapsilosis CBS-604 = assay: MIC90 growth inhibition; format: cell-based, Candida parapsilosis; details: RPMI 1640 one-fourth strength
Method: as §1

C. parapsilosis CBS #57 = assay: MIC90 growth inhibition; format: cell-based, Candida parapsilosis; details: RPMI 1640 one-fourth strength
Method: as §1

C. parapsilosis CMC-2039 = assay: MIC90 growth inhibition; format: cell-based, Candida parapsilosis; details: RPMI 1640 one-fourth strength
Method: as §1

onychomycosis [5] = assay: Application of the composition by human subjects (Example 1); format: in vivo
Method: The concentration of the antimicrobial peptide in the composition used for the treatment of onychomycosis by human subjects, was 30 mg/l ([…]).
The composition used comprises the antimicrobial peptide hLF1-11 (GRRRRSVQWCA) [SEQ ID NO: 3] and is a clear colorless liquid in a (glass) bottle with a dropper to facilitate application to the nail. […] The antimicrobial peptide is completely biodegradable.
The composition is applied twice a day to the affected nail and cuticle, preferably in the morning and in the evening. Hold the tip of the dropper above the nail. Avoid direct contact between the dropper providing the solution and the infected nail to keep liquid clean. Squeeze the tube gently and drop the drop onto the cuticle/proximal fold. It is preferred to cover the whole nail with a thin layer of the solution. In particular cases it is important that the solution is also applied under the edge of the affected nail (on the distal nail bed) e.g. with a cotton swab, in particular when the infection started from there. Allow the nail to dry for a few minutes after application. The treatment duration varies depending on the severity of the infection; in many cases 3-6 months of treatment may be necessary. For optimal results, continue the treatment until a new healthy nail has fully grown. […] Reference is made to FIG. 1.

GRRRRSVQWCA [hLF1-11, Gly Arg Arg Arg Arg Ser Val Gln Trp Cys Ala]
MIC90 value (Candida parapsilosis): 25 to 50 µg/mL
Inhibitory concentration IC50 (Trichoderma viride): IC50 = 952 μg/mL
effect in patients D, E who had shown no effect at the high concentration (onychomycosis [1]; 100 mg/L, after 3 months of treatment): positive effect
time after which improvement was observed for the patients (onychomycosis [1]; High concentration solution (33.3 mg/L)): 3-6 months
positive effect of the treatment observed, number of patients (onychomycosis [1]; Low concentrate (3.3 mg/L antimicrobial peptide) in aqueous acetic acid 0.01 volume %): 18 patients
time after which improvement was observed for the patients (onychomycosis [1]; Low concentration solution (3.3 mg/L)): 4-7 months
positive effect of the treatment observed, number of patients (onychomycosis [1]; high concentrate (33.3 mg/L antimicrobial peptide) in aqueous acetic acid 0.01 volume %): 22 patients
no results observed, number of patients (onychomycosis [1]; high concentration): 2 patients
adverse side effects (patients' remarks) (onychomycosis [1]; human, in vivo): No adverse side effects
no results observed, number of patients (onychomycosis [1]; low concentration): 3 patients
positive effect of the nail treatment (onychomycosis [1]; panel of 53 patients, aqueous solution comprising the antimicrobial peptide): 88.64%
patients with visual improvement of the nails (onychomycosis [1]; patients in the clinical trial): more than 85%
positive result obtainable for all patients included in the clinical trial (onychomycosis [1]; when the concentration of the antimicrobial peptide is 100 mg/L): 100%
Inhibitory concentration MIC (MIC90) (C. auris): MIC = 12.5-25 μg/ml
Inhibitory concentration MIC (MIC90) (S. epidermidis Type 2163): MIC = 3.1 μg/ml
Inhibitory concentration MIC (MIC90) (C. glabrata spp.): MIC = 25 μg/mL
Inhibitory concentration MIC (MIC90) (Microsporum spp): MIC = 25-50 μg/mL
Inhibitory concentration MIC (MIC90) (Hypercrealis spp): MIC = 25-50 μg/mL
Inhibitory concentration MIC (MIC90) (Malassezia spp): MIC = 12.5-50 μg/mL
Inhibitory concentration MIC (MIC90) (Epidermophyton spp): MIC = 25-50 μg/mL
Inhibitory concentration MIC (MIC90) (Trichophyton spp): MIC = 6.3-50 μg/ml
Inhibitory concentration MIC (MIC90) [2]: MIC = 25-50 μg/mL
Inhibitory concentration MIC (MIC90) [3]: MIC = 25-50 μg/mL
Inhibitory concentration MIC (MIC90) (Candida albicans spp): MIC = 25-50 μg/mL
Inhibitory concentration MIC (MIC90) [4]: MIC = 6.3 μg/ml
Inhibitory concentration IC50 (Rhizoctonia solani): IC50 = 121 μg/mL
Inhibitory concentration MIC (MIC90) (C. parapsilosis CBS #7): MIC = 25-50 μg/mL
Inhibitory concentration MIC (MIC90) (C. parapsilosis CBS #61): MIC = 25-50 μg/mL
Inhibitory concentration MIC (MIC90) (C. parapsilosis CBS-604; C. parapsilosis CBS-604, second listing): MIC = 25 μg/ml
Inhibitory concentration MIC (MIC90) (C. parapsilosis CBS-604): MIC = 25 μg/mL
Inhibitory concentration MIC (MIC90) (C. parapsilosis CBS #57): MIC = 25-50 μg/mL
Inhibitory concentration MIC (MIC90) (C. parapsilosis CMC-2039; C. parapsilosis CMC-2039, second listing): MIC = 25 μg/ml
Inhibitory concentration MIC (MIC90) (C. parapsilosis CMC-2039): MIC = 25 μg/mL
recurrent infection in treated patients (onychomycosis [5]; after 4 months or even longer): do not show signs of recurrent infection
time to first visible improvements (onychomycosis [5]; twice daily application, 30 mg/l composition): two to four
